The results in this text go back to patent US20250197343A1, “CATIONIC LIPID” (TAKEDA PHARMACEUTICAL COMPANY LIMITED, priority 2021, published 2025).

Molecules are shown by their SMILES. Like-named read-outs stand apart in the source and are kept apart here.

One data set concerns Huh-7 cells. The experiment in a line: Evaluation of viability using Huh-7 cells (Test Example 2). The class given is cell-based. Here is the method: Huh-7 cells were seeded in a 96-well plate, and PBS, the Luc DNA-encapsulated lipid nanoparticles obtained in the aforesaid Production Example by using the cationic lipids of the Examples shown in Table 3, or Luc DNA-encapsulated lipid nanoparticles for control which were obtained in the same manner as in the aforesaid Production Example except that a known lipid, MC3 (DLin-MC3-DMA) or ALC-0315, was used instead of the cationic lipids of the Examples were added thereto (final concentration: 0.1 μg/mL and 0.3 μg/mL), followed by evaluation of viability (CellTiter-Fluor Cell Viability Assay, Promega Corporation). Taking the viability of dead cell group as 0% and the viability of the PBS group as 100%, the viability of each of the lipid particle groups was calculated. Higher viability indicates higher safety of the lipid particles. When the cationic lipids of the Examples were used, an improvement in safety compared to the control groups of MC3 and ALC-0315 was observed.

The subject of the next data set is ICrl:CD1 (ICR) mice. The experiment in a line: Mouse bioluminescence imaging evaluation (Test Example 1). Format: in vivo. The conditions noted are these: Luc DNA-encapsulated lipid nanoparticles 10 mL/kg i.v. to ICR mice; IVIS total flux 15 minutes after luciferin i.p. Put shortly:
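ICR mice received Luc DNA-encapsulated lipid nanoparticles i.v. (10 mL/kg), then luciferin 15 mg/mL i.p. (10 mL/kg). Ventral IVIS imaging under isoflurane 15 min after luciferin; total flux scored A (≥3.0E+07), B (1.0E+07 to <3.0E+07), C (<1.0E+07).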

Data set [1] can be described thus: Rate of encapsulation of Luc DNA in lipid nanoparticles. Format: physicochemical. Also on record: unit: %. The conditions noted are these: Luc DNA-encapsulated lipid nanoparticles; cationic lipid:DPPC:cholesterol:GM-020=60:10.6:28:1.4 molar ratio. Put shortly: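 Luc DNA-LNPs (cationic lipid:DPPC:cholesterol:GM-020 = 60:10.6:28:1.4 molar) formed by microfluidic mixing with DNA in 10 mM MES pH 5.5, then dialyzed into PBS. RiboGreen fluorescence measured with and without Triton X-100; encapsulation rate is the encapsulated fraction of total nucleic acid.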

A short description of data set [2]: Particle size of Luc DNA-encapsulated lipid nanoparticles. Format: physicochemical. The conditions noted are these: cationic lipid:DPPC:cholesterol:GM-020=60:10.6:28:1.4 molar ratio. Put shortly: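 LNPs of cationic lipid:DPPC:cholesterol:GM-020 (60:10.6:28:1.4 molar) encapsulating luciferase DNA, made by microfluidic mixing with DNA in 10 mM MES pH 5.5, dialysed into PBS, stored in 20% sucrose/PBS at −80 °C. Size by dynamic light scattering, reported as cumulant Z-average.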

The mark [3] stands for this setting: Huh-7 cells, Luc DNA-encapsulated lipid nanoparticles, final concentration 0.1 μg/mL, PBS group = 100%, dead cell group = 0%.
Setting [4] is: Huh-7 cells, Luc DNA-encapsulated lipid nanoparticles, final concentration 0.3 μg/mL, PBS group = 100%, dead cell group = 0%.

Turning to `CCCCCCCCC(CCCCCC)C(=O)OCCCCCCN(CCCCO)CCCCCCOC(=O)C(CCCCCC)CCCCCCCC` (stereo not drawn) [ALC-0315, reference compound], the “Viability 0.1 μg/ml (%)” value with Huh-7 cells (setting [3]) was determined as 89%. Besides, the “Viability 0.3 μg/ml (%)” value in the data set with Huh-7 cells (setting [4]) is given as 68%.
As to `CCCCCCCOC(=O)CCCCC(=O)OCC(COC(=O)CCCCC(=O)OCCCCCCC)(COC(=O)CCCN(C)C)COC(=O)CC(CCCCC)CCCCC` [Example 13, 1,1′-[2-({[4-(Dimethylamino)butanoyl]oxy}methyl)-2-{[(3-pentyloctanoyl)oxy]methyl}propane-1,3-diyl] 6,6′-diheptyl dihexanedioate], the Luminescence result in the data set on ICrl:CD1 (ICR) mice is on record as “A (A represents luminescence of 3.0E+07 or more)”. In addition, the “Viability 0.1 μg/ml (%)” value with Huh-7 cells (setting [3]) is listed as 112%. Also, the “Viability 0.3 μg/ml (%)” value with Huh-7 cells (setting [4]) was 105%. Moreover, the Rate of encapsulation in data set [1] is 96.3. The “Particle size (nm)” value in data set [2] turned out to be 136.5 nm.
Take `CCCCCCCOC(=O)CCCCC(=O)OCC(COC(=O)CCCCN(C)C)(COC(=O)CC(CCCCC)CCCCC)COC(=O)CC(CCCCC)CCCCC` [Example 18, 2-({[5-(Dimethylamino)pentanoyl]oxy}methyl)-3-[(3-pentyloctanoyl)oxy]-2-{[(3-pentyloctanoyl)oxy]methyl}propyl heptyl hexanedioate]: the Luminescence entry in the data set with ICrl:CD1 (ICR) mice is listed as “A (A represents luminescence of 3.0E+07 or more)”. The “Viability 0.1 μg/ml (%)” value in the data set on Huh-7 cells (setting [3]) is recorded as 110%. Besides, the “Viability 0.3 μg/ml (%)” value in the data set with Huh-7 cells (setting [4]) is recorded as 106%. For the same molecule, the Rate of encapsulation in data set [1] turned out to be 96.6. In addition, the “Particle size (nm)” value in data set [2] was 138.9 nm.
For `CCCCCCCOC(=O)CCCCC(=O)OCC(COC(=O)CCCCC(=O)OCCCCCCC)(COC(=O)CCCN(C)C)COC(=O)CC(CCC)CCCCCCC` (stereo not drawn) [Example 28, 1,1′-[2-({[4-(Dimethylamino)butanoyl]oxy}methyl)-2-{[(3-propyldecanoyl)oxy]methyl}propane-1,3-diyl] 6,6′-diheptyl dihexanedioate] the same measures were “A (A represents luminescence of 3.0E+07 or more)”, 113%, 110%, 94.9 and 137.3 nm.
For `CCCCCC(CCCCC)COC(=O)CCC(=O)OCC(COC(=O)CCCN(C)C)(COC(=O)CCC(=O)OCC(CCCCC)CCCCC)COC(=O)CCC(=O)OCC(CCCCC)CCCCC` [Example 37, 1,1′-{2-({[4-(Dimethylamino)butanoyl]oxy}methyl)-2-[({4-oxo-4-[(2-pentylheptyl)oxy]butanoyl}oxy)methyl]propane-1,3-diyl} 4,4′-bis(2-pentylheptyl) dibutanedioate] the same measures were “A (A represents luminescence of 3.0E+07 or more)”, 111%, 98%, 97.0 and 124.1 nm.
Regarding `CCCCCC(CCCCC)OC(=O)CCC(=O)OCC(COC(=O)CCCN(C)C)(COC(=O)CCC(=O)OC(CCCCC)CCCCC)COC(=O)CCC(=O)OC(CCCCC)CCCCC` [Example 39, 1,1′-{2-({[4-(Dimethylamino)butanoyl]oxy}methyl)-2-[({4-oxo-4-[(undecan-6-yl)oxy]butanoyl}oxy)methyl]propane-1,3-diyl} 4,4′-diundecan-6-yl dibutanedioate], in the data set on ICrl:CD1 (ICR) mice, the Luminescence result was “B (B represents luminescence of 1.0E+0.7 or more and less than 3.0E+07)”. In the data set with Huh-7 cells, the “Viability 0.1 μg/ml (%)” value is 113% and the “Viability 0.3 μg/ml (%)” value came to 94%. For the same molecule, the Rate of encapsulation in data set [1] is reported as 98.5. The “Particle size (nm)” value in data set [2] is listed as 135.2 nm.
In the case of `CCCCCCCCCOC(=O)CCCCC(=O)OCC(COC(=O)CCCCC(=O)OCCCCCCCCC)(COC(=O)CCCCC(=O)OCCCCCCCCC)COC(=O)CCCN(C)C` [Example 41, 1,1′-[2-({[4-(Dimethylamino)butanoyl]oxy}methyl)-2-({[6-(nonyloxy)-6-oxohexanoyl]oxy}methyl)propane-1,3-diyl] 6,6′-dinonyl dihexanedioate], the Luminescence entry in the data set with ICrl:CD1 (ICR) mice is “B (B represents luminescence of 1.0E+0.7 or more and less than 3.0E+07)”. The “Viability 0.1 μg/ml (%)” value in the data set on Huh-7 cells (setting [3]) is on record as 111%. In the data set on Huh-7 cells (setting [4]), the “Viability 0.3 μg/ml (%)” value is listed as 101%. Moreover, in data set [1], the Rate of encapsulation was determined as 80.3. For the same molecule, in data set [2], the “Particle size (nm)” value stood at 138.0 nm.
In the case of `CCCCCCCCCCOC(=O)CCCCC(=O)OCC(COC(=O)CCCCC(=O)OCCCCCCCCCC)(COC(=O)CCCN(C)C)COC(=O)CC(CCCCC)CCCCC` [Example 45, 1,1′-Didecyl 6,6′-[2-({[4-(dimethylamino)butanoyl]oxy}methyl)-2-{[(3-pentyloctanoyl)oxy]methyl}propane-1,3-diyl] dihexanedioate], the Luminescence result in the data set on ICrl:CD1 (ICR) mice is “A (A represents luminescence of 3.0E+07 or more)”. For the same molecule, the “Viability 0.1 μg/ml (%)” value in the data set on Huh-7 cells (setting [3]) turned out to be 108%. The “Viability 0.3 μg/ml (%)” value with Huh-7 cells (setting [4]) is 103%. Also, the Rate of encapsulation in data set [1] is 95.6. The “Particle size (nm)” value in data set [2] was 119.0 nm.
In the case of `CCCCCCOC(=O)C(CCCCCC)C(=O)OCC(COC(=O)CCCCN(C)C)(COC(=O)CC(CCCCC)CCCCC)COC(=O)C(CCCCCC)C(=O)OCCCCCC` (stereo not drawn) [Example 122, 1,1′-[2-({[5-(Dimethylamino)pentanoyl]oxy}methyl)-2-{[(3-pentyloctanoyl)oxy]methyl}propane-1,3-diyl] 3,3′-dihexyl bis(hexylpropanedioate)], the Luminescence result in the data set on ICrl:CD1 (ICR) mice was “B (B represents luminescence of 1.0E+0.7 or more and less than 3.0E+07)”. The Rate of encapsulation in data set [1] worked out at 96.0. In addition, the “Particle size (nm)” value in data set [2] is on record as 152.1 nm.
Regarding `CCCCCOC(=O)CCCCCCC(=O)OCC(COC(=O)CCCCCCC(=O)OCCCCC)(COC(=O)CCCN(C)C)COC(=O)CC(CCCCC)CCCCC` [Example 129, 1,1′-[2-({[4-(Dimethylamino)butanoyl]oxy}methyl)-2-{[(3-pentyloctanoyl)oxy]methyl}propane-1,3-diyl] 8,8′-dipentyl dioctanedioate], the Luminescence entry with ICrl:CD1 (ICR) mice is recorded as “A (A represents luminescence of 3.0E+07 or more)”. Besides, the Rate of encapsulation in data set [1] was 92.6. In addition, in data set [2], the “Particle size (nm)” value was 144.9 nm.
The matching figures for `CCCCCCCCC(C(=O)OC)C(=O)OCC(COC(=O)CCCN(CC)C(C)C)(COC(=O)CC(CCCCC)CCCCC)COC(=O)C(CCCCCCCC)C(=O)OC` (stereo not drawn) [Example 133, 1,1′-(2-[({4-[Ethyl(propan-2-yl)amino]butanoyl}oxy)methyl]-2-{[(3-pentyloctanoyl)oxy]methyl}propane-1,3-diyl) 3,3′-dimethyl bis(octylpropanedioate)]: “C (C represents luminescence of less than 1.0E+07)”, 95.3 and 133.4 nm.
On to `CCCCCCCCCCC(C(=O)OC)C(=O)OCC(COC(=O)CCCN(C)C)(COC(=O)CC(CCCCC)CCCCC)COC(=O)C(CCCCCCCCCC)C(=O)OC` (stereo not drawn) [Example 134, 1,1′-[2-({[4-(Dimethylamino)butanoyl]oxy}methyl)-2-{[(3-pentyloctanoyl)oxy]methyl}propane-1,3-diyl] 3,3′-dimethyl bis(decylpropanedioate)], for which the Luminescence entry in the data set with ICrl:CD1 (ICR) mice is reported as “A (A represents luminescence of 3.0E+07 or more)”. Besides, the Rate of encapsulation in data set [1] was 94.5. In addition, the “Particle size (nm)” value in data set [2] is given as 103.0 nm.
The matching figures for `CCCCCCCCCCC(C(=O)OC)C(=O)OCC(COC(=O)CCCN(CC)C(C)C)(COC(=O)CC(CCCCC)CCCCC)COC(=O)C(CCCCCCCCCC)C(=O)OC` (stereo not drawn) [Example 135, 1,1′-(2-[({4-[Ethyl(propan-2-yl)amino]butanoyl}oxy)methyl]-2-{[(3-pentyloctanoyl)oxy]methyl}propane-1,3-diyl) 3,3′-dimethyl bis(decylpropanedioate)]: “A (A represents luminescence of 3.0E+07 or more)”, 97.1 and 80.1 nm.
Consider `CCCCC/C=C\C/C=C\CCCCCCCCC(CCCCCCCC/C=C\C/C=C\CCCCC)OC(=O)CCCN(C)C` [MC3, reference compound], for which the “Viability 0.1 μg/ml (%)” value in the data set on Huh-7 cells (setting [3]) came out at 97%. In addition, the “Viability 0.3 μg/ml (%)” value in the data set on Huh-7 cells (setting [4]) stood at 49%.
